Data on one compound can be found in patent EP4763971A1, “MULTI-ORGANS-ON-A-CHIP WITH INVERTED MICROWEIR STRUCTURE AS MULTI-CELL CULTURE PLATFORM AND USE THEREOF” (Humanase, priority 2023, dated 2025).

Like-named read-outs stand apart in the source and are kept apart here.

In data set [1] the test system is cardiomyocytes (Cardiosight-S).
Experimental: (§1) Next, cardiomyocytes (Cardiosight-S) differentiated from human pluripotent stem cells (hPSCs) from NEXEL were mixed with a hydrogel such as collagen, and then injected using a pipette into the cell inlet connected to the inner cell chamber of the multi-organ-on-a-chip prepared in Example 1, thereby injecting cardiomyocytes into the inner cell chamber.
Next, 1 x 10^5 cultured hepatocytes (HepG2) were injected using a pipette into each cell inlet connected to the two outer cell chambers of the multi-organ-on-a-chip prepared in Example 1, thereby injecting hepatocytes into the two outer cell chambers.
(§2) Next, the hydrogel comprised in the injected cardiomyocyte mixture was cured to fix the cardiomyocytes within the cell chamber. Depending on the type of hydrogel, curing is performed using different curing methods. In the case of collagen, curing was performed via temperature change by placing in an incubator for at least 1 hour, and then cardiomyocytes were continuously cultured in the incubator.
Further, hepatocytes were fixed and cultured using the same method. […]
In data set [2] the test system is cardiomyocytes (Cardiosight-S). As to conditions: control heart-on-a-chip, 9,000 µM cyclophosphamide, compared to cardiomyocytes not treated with cyclophosphamide.
Text: as §1, §2
The culture was performed by supplying a culture medium comprising a mixture of Cardiosight-S Media supplemented with supplement (50X) and Minimum Essential Media Eagle (MEM, high-glucose, gibco) supplemented with 25 mM HEPES (4-(2-hydroxyethyl)-1-piperazineethanesulfonic acid, gibco), 10% (v/v) FBS, P/S (100 Uml-1 penicillin/100 Uml-1 streptomycin, Sigma-Aldrich Co., MO) at a certain ratio. […]

On to `O=P1(N(CCCl)CCCl)NCCCO1` (stereo not drawn) [cyclophosphamide], for which the “effect on the beating rate of cardiomyocytes” value in data set [1] (liver-heart-on-a-chip compared to the control heart-on-a-chip, 0, 1,000, 5,000, or 9,000 µM (FIG. 8)) was “more significant effect”. The “beating rate of the cardiomyocytes increased” value in data set [1] (liver-heart-on-a-chip, 9,000 µM cyclophosphamide, compared to cardiomyocytes not treated with cyclophosphamide) came out at 177.9 ± 2.56%; in data set [2] it was 31.76 ± 0.59%.
